Measured values from PubChem BioAssay (NCI).
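Cultured in 96-well plates, cells were exposed to test compound for 48 hours across five concentrations. TGI denotes the concentration required for complete inhibition of growth.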

Columns and labels:
Assay in all cases: DTP human tumour cell line panel, 48 h
HT29 colon = system: HT29 colon
IGROV1 ovarian = system: IGROV1 ovarian
ACHN renal = system: ACHN renal
COLO 205 colon = system: COLO 205 colon
SW-620 colon = system: SW-620 colon
SF-295 CNS = system: SF-295 CNS
NCI-H460 lung = system: NCI-H460 lung
M14 melanoma = system: M14 melanoma
NCI-H522 lung = system: NCI-H522 lung
HOP-18 NSCLC = system: HOP-18 NSCLC
U251 CNS = system: U251 CNS
M19-MEL melanoma = system: M19-MEL melanoma
SF-539 CNS = system: SF-539 CNS
HOP-92 NSCLC = system: HOP-92 NSCLC
KM12 colon = system: KM12 colon
UACC-257 melanoma = system: UACC-257 melanoma
RXF 393 renal = system: RXF 393 renal
SK-MEL-5 melanoma = system: SK-MEL-5 melanoma
HCT-15 colon = system: HCT-15 colon
KM20L2 colon = system: KM20L2 colon
HL-60(TB) leukemia = system: HL-60(TB) leukemia
EKVX NSCLC = system: EKVX NSCLC
SK-OV-3 ovarian = system: SK-OV-3 ovarian
786-0 renal = system: 786-0 renal
HOP-62 NSCLC = system: HOP-62 NSCLC
K-562 leukemia = system: K-562 leukemia
DMS 273 small cell lung = system: DMS 273 small cell lung
SK-MEL-28 melanoma = system: SK-MEL-28 melanoma
NCI-H226 lung = system: NCI-H226 lung
TK-10 renal = system: TK-10 renal
NCI-H23 lung = system: NCI-H23 lung
MOLT-4 leukemia = system: MOLT-4 leukemia
CCRF-CEM leukemia = system: CCRF-CEM leukemia
SK-MEL-2 melanoma = system: SK-MEL-2 melanoma
SF-268 CNS = system: SF-268 CNS
RPMI-8226 leukemia = system: RPMI-8226 leukemia
LOX IMVI melanoma = system: LOX IMVI melanoma
A549 NSCLC = system: A549 NSCLC
OVCAR-4 ovarian = system: OVCAR-4 ovarian
LXFL 529 NSCLC = system: LXFL 529 NSCLC
DMS 114 small cell lung = system: DMS 114 small cell lung
OVCAR-3 ovarian = system: OVCAR-3 ovarian
OVCAR-5 ovarian = system: OVCAR-5 ovarian
XF 498 CNS = system: XF 498 CNS
CAKI-1 renal = system: CAKI-1 renal
UACC-62 melanoma = system: UACC-62 melanoma
OVCAR-8 ovarian = system: OVCAR-8 ovarian
SNB-19 CNS = system: SNB-19 CNS
MALME-3M melanoma = system: MALME-3M melanoma
UO-31 renal = system: UO-31 renal
SN12C renal = system: SN12C renal
SNB-75 CNS = system: SNB-75 CNS
A498 renal = system: A498 renal
DLD-1 colon = system: DLD-1 colon
HCT-116 colon = system: HCT-116 colon
SNB-78 CNS = system: SNB-78 CNS

O=C1C2CN(Cc3ccccc3)CC1CN(CC1CC1)C2
TGI (HT29 colon): > 100 µM | TGI (IGROV1 ovarian): > 100 µM | TGI (ACHN renal): > 100 µM | TGI (COLO 205 colon): > 100 µM | TGI (SW-620 colon): > 100 µM | TGI (SF-295 CNS): > 100 µM | TGI (NCI-H460 lung): > 100 µM | TGI (M14 melanoma): > 100 µM | TGI (NCI-H522 lung): > 100 µM | TGI (HOP-18 NSCLC): > 100 µM | TGI (U251 CNS): > 100 µM | TGI (M19-MEL melanoma): > 100 µM | TGI (SF-539 CNS): > 100 µM | TGI (HOP-92 NSCLC): > 100 µM | TGI (KM12 colon): > 100 µM | TGI (UACC-257 melanoma): > 100 µM | TGI (RXF 393 renal): > 100 µM | TGI (SK-MEL-5 melanoma): > 100 µM | TGI (HCT-15 colon): > 100 µM | TGI (KM20L2 colon): > 100 µM | TGI (HL-60(TB) leukemia): > 100 µM | TGI (EKVX NSCLC): > 100 µM | TGI (SK-OV-3 ovarian): > 100 µM | TGI (786-0 renal): > 100 µM | TGI (HOP-62 NSCLC): > 100 µM | TGI (K-562 leukemia): > 100 µM | TGI (DMS 273 small cell lung): > 100 µM | TGI (SK-MEL-28 melanoma): > 100 µM | TGI (NCI-H226 lung): > 100 µM | TGI (TK-10 renal): > 100 µM | TGI (NCI-H23 lung): > 100 µM | TGI (MOLT-4 leukemia): > 100 µM | TGI (CCRF-CEM leukemia): > 100 µM | TGI (SK-MEL-2 melanoma): > 100 µM | TGI (SF-268 CNS): > 100 µM | TGI (RPMI-8226 leukemia): > 100 µM | TGI (LOX IMVI melanoma): > 100 µM | TGI (A549 NSCLC): > 100 µM | TGI (OVCAR-4 ovarian): > 100 µM | TGI (LXFL 529 NSCLC): > 100 µM | TGI (DMS 114 small cell lung): > 100 µM | TGI (OVCAR-3 ovarian): > 100 µM | TGI (OVCAR-5 ovarian): > 100 µM | TGI (XF 498 CNS): > 100 µM | TGI (CAKI-1 renal): > 100 µM | TGI (UACC-62 melanoma): > 100 µM | TGI (OVCAR-8 ovarian): > 100 µM | TGI (SNB-19 CNS): > 100 µM | TGI (MALME-3M melanoma): > 100 µM | TGI (UO-31 renal): > 100 µM | TGI (SN12C renal): > 100 µM | TGI (SNB-75 CNS): > 100 µM | TGI (A498 renal): > 100 µM

CC(C)N1CN(C(C(=O)N[C@@H]2C(=O)N3C2SC(C)(C)C3C(=O)O)c2ccc(O)cc2)CSC1=S (stereo partly specified)
TGI (HT29 colon): > 100 µM | TGI (IGROV1 ovarian): > 100 µM | TGI (ACHN renal): > 100 µM | TGI (COLO 205 colon): > 100 µM | TGI (SW-620 colon): 36.9 µM | TGI (SF-295 CNS): > 100 µM | TGI (NCI-H460 lung): > 100 µM | TGI (M14 melanoma): > 100 µM | TGI (NCI-H522 lung): > 100 µM | TGI (HOP-18 NSCLC): > 100 µM | TGI (U251 CNS): > 100 µM | TGI (M19-MEL melanoma): > 100 µM | TGI (SF-539 CNS): > 100 µM | TGI (HOP-92 NSCLC): > 100 µM | TGI (KM12 colon): > 100 µM | TGI (UACC-257 melanoma): > 100 µM | TGI (SK-MEL-5 melanoma): > 100 µM | TGI (HCT-15 colon): > 100 µM | TGI (KM20L2 colon): > 100 µM | TGI (DLD-1 colon): > 100 µM | TGI (HL-60(TB) leukemia): > 100 µM | TGI (EKVX NSCLC): > 100 µM | TGI (SK-OV-3 ovarian): > 100 µM | TGI (786-0 renal): > 100 µM | TGI (HCT-116 colon): > 100 µM | TGI (HOP-62 NSCLC): > 100 µM | TGI (K-562 leukemia): > 100 µM | TGI (SNB-78 CNS): > 100 µM | TGI (DMS 273 small cell lung): > 100 µM | TGI (SK-MEL-28 melanoma): > 100 µM | TGI (TK-10 renal): > 100 µM | TGI (NCI-H23 lung): > 100 µM | TGI (MOLT-4 leukemia): > 100 µM | TGI (CCRF-CEM leukemia): > 100 µM | TGI (SK-MEL-2 melanoma): > 100 µM | TGI (SF-268 CNS): > 100 µM | TGI (RPMI-8226 leukemia): > 100 µM | TGI (LOX IMVI melanoma): > 100 µM | TGI (OVCAR-4 ovarian): > 100 µM | TGI (LXFL 529 NSCLC): > 100 µM | TGI (DMS 114 small cell lung): > 100 µM | TGI (OVCAR-3 ovarian): > 100 µM | TGI (OVCAR-5 ovarian): > 100 µM | TGI (XF 498 CNS): > 100 µM | TGI (CAKI-1 renal): > 100 µM | TGI (UACC-62 melanoma): > 100 µM | TGI (OVCAR-8 ovarian): > 100 µM | TGI (SNB-19 CNS): > 100 µM | TGI (MALME-3M melanoma): > 100 µM | TGI (UO-31 renal): > 100 µM | TGI (SN12C renal): > 100 µM | TGI (SNB-75 CNS): > 100 µM | TGI (A498 renal): > 100 µM
